Like-named read-outs stand apart in the source and are kept apart here.

This note sets out measurements from US8242160B2, “Inhibitors of ubiquitin E1” (The United States of America, as represented by the …, priority 2005, dated 2012).

For assay [1], the system named is GST-Mdm2. Nature of the assay: Standard Mdm2 in vitro ubiquitination assay (E1+E2+E3), gel-based with 32P-labeled ubiquitin. It is filed as biochemical. The text has this: The ability of a compound to inhibit E1 activity may also be examined by determining the ability of the compound to inhibit Mdm2 autoubiquitination, which is dependent on E1, as well as E2. For in vitro assays Mdm2 can be expressed as a GST fusion. This allows for a high level of expression of protein that can be purified on glutathione Sepharose. Detection of ubiquitination of Mdm2 can be accomplished, for example, using ^32P-labeled ubiquitin, Western blotting with anti-ubiquitin, or by looking at a shift in the molecular weight of GST fusion by Western blotting with anti-GST. A variety of in vitro assays that measure levels of self-ubiquitinated Mdm2 can be employed, such as for example, immunoprecipitation of ubiquitinated Mdm2; gel assays wherein the amount of ubiquitinated Mdm2 is measured by densitometric scanning or where covalent attachment of radio-labeled or otherwise tagged ubiquitin to Mdm2 or p53 is measured; Western blot analysis, or other known techniques such as ELISA, immunoprecipitation, RIA, and the like. […]

The test system of assay [2] is p53. Nature of the assay: Cellular p53 level by immunoblotting. The assay is classed as cell-based. The settings on record: six hours treatment; RPE cells. An excerpt: FIG. 5A depicts the increase in the levels of Mdm2 and p53 in RPE cells after treatment with the E1 inhibitor 4-[4-(5-nitro-furan-2-ylmethylene)-3,5-dioxo-pyrazolidin-1-yl]-benzoic acid methyl acid.

In assay [3] the test system is NFκB. Nature of the assay: NFκB response element-driven luciferase reporter, IL-1 induced. The assay is classed as cell-based, human. The settings on record: HeLa cells, 50 μM for 10 minutes, then IL-1 0-1.0 ng/ml for 2 hours. Here is the method:
HeLa cells (human epithelial cells) were transfected with a NFκB response element-driven luciferase reporter. The cells were treated with E1 41 (50 μM) for 10 minutes, or dimethyl sulfoxide (DMSO) control. Interleukin 1 (IL-1) was added to the cells for 2 hours. IL-1 was added at concentrations ranging from 0-1.0 ng/ml to induce activation of NFκB. An assay for luciferase activity was carried out according to the methods as described in the commercially available PROMEGA system for luciferase detection.
(A reporter such as luciferase makes a cellular process visible.)

In the case of `COC(=O)c1ccc(N2NC(=O)/C(=C/c3ccc([N+](=O)[O-])o3)C2=O)cc1` [E1-41, 4-[4-(5-nitro-furan-2-ylmethylene)-3,5-dioxo-pyrazolidin-1-yl]-benzoic acid methyl acid], the “Mdm2 autoubiquitination in vitro (high molecular weight species)” value in assay [1] is “prevent generation of high molecular weight species promoted by Mdm2 in a dose-dependent manner”; in assay [1] (listed as compound 41), “inhibits autoubiquitination of Mdm2 in vitro”. Moreover, in assay [2], the “cellular p53 level” value is on record as “increased”. Moreover, the “IL-1 induced NFκB luciferase reporter activity” value in assay [3] was “reduction of luciferase activity”.
